IC50 and GI50 data for 36 compounds are collected here from US8940739B2, “Compound of a reverse-turn mimetic and a production method and use therefor” (JW Pharmaceutical Corporation, priority 2010, dated 2015).

For data set [1], the target named is cDNA-expressed human hepatic CYP3A4 (Homo sapiens (Human), UniProt P08684). The data set is described as follows: Measurement of CYP (IC50 of P450 CYP3A4), BFC substrate. It counts as in vitro ADME. To be noted: 20 minutes. The procedure:
The compounds of the present invention had lower P450 CYP3A4 inhibitory activity (higher IC50). Lower CYP3A4 inhibitory activity means that the compounds of the present invention cause fewer side-effects from the pharmacological point of view.
This assay was performed in a 200 l volume in 96-well microtiter plates using cDNA-expressed human hepatic CYP3A4 (supersome, BD Gentest™ #456202). As a substrate for CYP3A4, 7-benzyloxy-4-trifluoromethyl-coumarin (BFC) was used. The compounds of Examples 1 to 5 and the substrate BFC were dissolved in 100% acetonitrile. The final volume of acetonitrile of the incubation mixture was less than 1% (volume/volume). A potassium phosphate buffer (pH 7.4, final concentration 0.1M), MgCl2 (final concentration 8.3 mM), EDTA (final concentration 1.67 mM), an inventive compound stock solution, CYP3A4 supersome, and NADPH (final concentration 0.25 mM) were added to each well. The reaction was initiated by adding the substrate (BFC, final concentration 30 µM) at 37. The incubation was performed for 20 minutes and then the reaction was terminated by the addition of 75 μl of acetonitrile: 0.5 M tris-base=4:1 (volume/volume).
Then, a fluorescent signal was measured using a fluorometer. A BFC metabolite, 7-hydroxy-4-trifluoromethyl-coumarin, was measured using an excitation wavelength of 409 nm and an emission wavelength of 530 nm.

Data set [2] deals with MV-4-11 (human, Acute Myeloid Leukemia cell line) cells. Briefly: Cell growth inhibition assay, GI50 of MV-4-11. Type of data set: cell-based. The following applies: Homo sapiens, MV4-11, 72 h, MV-4-11 cells. The procedure:
The anti-proliferative activity (cell growth inhibition assay) of the compounds according to the present invention against AML (Acute Myeloid Leukemia) cancer cells was measured. […] The lower the GI50 value, the higher the anti-proliferative activity.
A cell growth Inhibition assay was performed to investigate the rate of inhibition of cell proliferation by the compounds of the present invention. MV-4-11 (human, Acute Myeloid Leukemia cell line) cells were cultured in Iscove's modified Dulbecco's medium (IMDM) including 10% fetal bovine serum (FBS), 1× penicillin/streptomycin (10,000 units/ml Penicillin, […] Streptomycin in 0.85% NaCl). MV-4-11 cells were harvested with the IMDM and 5×10^4 cells/well were transferred to each well of 96-well culture plates (Nunc, #167008).
The compounds of Examples 1 to 5 were exposed to serial dilution and duplicated for each concentration. For the serial dilution, the compounds of the present invention were repeatedly diluted with the same volume of media onto 96-well assay block (costar, #3956). After the dilution, each compound was added to each well.
Also, the background absorbance was measured during the treatment with the test compounds by replacing the test compound with IMDM in the negative control plate. The plates were incubated for three days (72 hours) at 37 in the humidified incubator containing 5% CO2. On the last day, 20 µl of a CellTiter 96 Aqueous One Solution (Promega #G3581) was added to the culture in each well and the plates were incubated for a few hours at 37 in the humidified incubator containing 5% CO2. After the incubation, the absorbance of each cell was measured at 490 nm using an EnVision (Perkinelmer, USA).
The GI50 values were calculated using a Prism 3.0 program.

cDNA-expressed human hepatic CYP3A4, sequence (P08684 whole entry): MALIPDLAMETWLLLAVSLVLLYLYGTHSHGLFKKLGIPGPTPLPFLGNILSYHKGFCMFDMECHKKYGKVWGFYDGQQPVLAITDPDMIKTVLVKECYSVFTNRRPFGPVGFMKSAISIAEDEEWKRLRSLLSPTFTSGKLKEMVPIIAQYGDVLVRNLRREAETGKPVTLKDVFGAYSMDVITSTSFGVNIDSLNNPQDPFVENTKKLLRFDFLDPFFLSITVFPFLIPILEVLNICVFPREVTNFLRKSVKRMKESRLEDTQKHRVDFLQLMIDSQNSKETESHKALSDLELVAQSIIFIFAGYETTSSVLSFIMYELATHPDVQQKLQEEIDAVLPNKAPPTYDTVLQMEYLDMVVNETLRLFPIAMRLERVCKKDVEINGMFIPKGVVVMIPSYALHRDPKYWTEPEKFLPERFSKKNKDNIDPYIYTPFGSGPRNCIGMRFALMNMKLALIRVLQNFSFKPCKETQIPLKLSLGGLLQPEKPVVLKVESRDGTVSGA

`C=CCN1CC(=O)N2[C@@H](Cc3ccc(O)cc3)C(=O)N(Cc3cccc4c(C(=O)N5CCCN(C)CC5)cn(C)c34)C[C@@H]2N1C(=O)NCc1ccccc1` [Compound E-42] showed an IC50 in data set [1] of 3630 nM.

As for `C=CCN1CC(=O)N2[C@@H](Cc3ccc(O)cc3)C(=O)N(Cc3cccc4c(C(=O)N5CC6CCN(C)C6C5)cn(C)c34)C[C@@H]2N1C(=O)NCc1ccccc1` (stereo partly drawn) [Compound E-68], the IC50 in data set [1] amounted to 2450 nM.

For the compound `C=CCN1CC(=O)N2[C@@H](Cc3ccc(O)cc3)C(=O)N(Cc3cccc4c(-c5ccc(C(=O)Nc6cccc(OCc7ccccc7)c6)cc5)cn(C)c34)C[C@@H]2N1C(=O)NCc1ccccc1` [Compound D-20], it took 17200 nM to reach half-maximal inhibition in data set [1] (IC50).

As for `C=CCN1CC(=O)N2[C@@H](Cc3ccc(O)cc3)C(=O)N(Cc3cccc4c(C(=O)N[C@H](C)C(=O)OC)cn(C)c34)C[C@@H]2N1C(=O)NCc1ccccc1` [Compound F-21], 10900 nM corresponded to half-maximal inhibition in data set [1] (IC50).

For the compound `C=CCN1CC(=O)N2[C@@H](Cc3ccc(O)cc3)C(=O)N(Cc3cccc4c(C(=O)NCCN(C)C)cn(C)c34)C[C@@H]2N1C(=O)NCc1ccccc1` [Compound F-13], inhibition in data set [1] was half-maximal at 7870 nM (IC50).

In the case of `C=CCN1CC(=O)N2[C@@H](Cc3ccc(O)cc3)C(=O)N(Cc3cccc4c(C(=O)N5CCN6CCN(C(C)=O)CC6C5)cn(C)c34)C[C@@H]2N1C(=O)NCc1ccccc1` (stereo partly drawn) [Compound E-44], the midpoint of inhibition in data set [1], the IC50, lay at 15000 nM.

`C=CCN1CC(=O)N2[C@@H](Cc3ccc(O)cc3)C(=O)N(Cc3cccc4c(C(=O)N5CCN(CCCCO)CC5)cn(C)c34)C[C@@H]2N1C(=O)NCc1ccccc1` [Compound E-12] yielded an IC50 in data set [1] of 9300 nM.

With `C=CCN1CC(=O)N2C(Cc3ccc(O)cc3)C(=O)N(Cc3cccc4c(C(=O)Nc5ccc(NCCN(C(C)C)C(C)C)nc5)cn(C)c34)CC2N1C(=O)NCc1ccccc1` (stereo not drawn) [Compound G-25], the IC50 in data set [1] turned out to be 4050 nM. Compared with the last compound, the IC50 is about 2.3-fold lower.

Regarding `C=CCN1CC(=O)N2[C@@H](Cc3ccc(O)cc3)C(=O)N(Cc3cccc4c(C(=O)N(C)CCn5ccnc5C)cn(C)c34)C[C@@H]2N1C(=O)NCc1ccccc1` [Compound F-36], the IC50 in data set [1] came to 2480 nM.

Turning to `C=CCN1CC(=O)N2[C@@H](Cc3ccc(O)cc3)C(=O)N(Cc3cccc4c(C(=O)NNCC(=O)OCC)cn(C)c34)C[C@@H]2N1C(=O)NCc1ccccc1` [Compound F-55], the IC50 in data set [1] came out at 6150 nM.

`C=CCN1CC(=O)N2[C@@H](Cc3ccc(O)cc3)C(=O)N(Cc3cccc4c(-c5ccc(NC(=O)CCCNCCC(C)=O)cc5)cn(C)c34)C[C@@H]2N1C(=O)NCc1ccccc1` [Compound D-72] yielded an IC50 in data set [1] of 2780 nM. This IC50 is about 2.2-fold lower than that of the compound before.

As to `C=CCN1CC(=O)N2[C@@H](Cc3ccc(O)cc3)C(=O)N(Cc3cccc4c(-c5cccc(C(=O)Nc6ccccc6)c5)cn(C)c34)C[C@@H]2N1C(=O)NCc1ccccc1` [Compound D-14], half-maximal inhibition in data set [1] (IC50) required 2130 nM. This IC50 and that of the compound before are within 1.5-fold of each other.

With `C=CCN1CC(=O)N2[C@@H](Cc3ccc(O)cc3)C(=O)N(Cc3cccc4c(C(=O)NCCCN(C)C)cn(C)c34)C[C@@H]2N1C(=O)NCc1ccccc1` [Compound F-18], in data set [1], the IC50 worked out at 17900 nM. This IC50 lies about 8.4-fold higher than the previous one.

In the case of `C=CCN1CC(=O)N2[C@@H](Cc3ccc(O)cc3)C(=O)N(Cc3cccc4c(C(=O)N5CCC(O)CC5)cn(C)c34)C[C@@H]2N1C(=O)NCc1ccccc1` [Compound E-51], the IC50 in data set [1] is 10700 nM.

In data set [2], `C=CCN1CC(=O)N2[C@@H](Cc3ccc(O)cc3)C(=O)N(Cc3cccc4c(-c5ccc(NC(=O)CCCN)cc5)cn(C)c34)C[C@@H]2N1C(=O)NCc1ccccc1` [Compound D-70] gave a GI50 of 4.4 nM.

The compound `C=CCN1CC(=O)N2[C@@H](Cc3ccc(O)cc3)C(=O)N(Cc3cccc4c(-c5ccc(NC(=O)N6CC(N7CCC(OC)CC7)C6)cc5)cn(C)c34)C[C@@H]2N1C(=O)NCc1ccccc1` [Compound D-66-1] had a GI50 in data set [2] of 1.4 nM.

In turn, `C=CCN1CC(=O)N2[C@@H](Cc3ccc(O)cc3)C(=O)N(Cc3cccc4c(-c5ccc(C(=O)NC)cc5)cn(C)c34)C[C@@H]2N1C(=O)NCc1ccccc1` [Compound D-8] registered a GI50 in data set [2] of 1.2 nM. The GI50 values of the last two compounds are within 1.5-fold of each other.

On to `C=CCN1CC(=O)N2[C@@H](Cc3ccc(O)cc3)C(=O)N(Cc3cccc4c(C(=O)N(C)CCNC5CC5)cn(C)c34)C[C@@H]2N1C(=O)NCc1ccccc1` [Compound F-11], for which the GI50 in data set [2] worked out at 10.4 nM.

For `C=CCN1CC(=O)N2[C@@H](Cc3ccc(O)cc3)C(=O)N(Cc3cccc4c(C(=O)N5CCN(C6CC6)CC5)cn(C)c34)C[C@@H]2N1C(=O)NCc1ccccc1` [Compound E-17], the GI50 in data set [2] is 4.5 nM.

As to `C=CCN1CC(=O)N2[C@@H](Cc3ccc(O)cc3)C(=O)N(Cc3cccc4c(-c5ccc(C(=O)NNC(C)C)cc5)cn(C)c34)C[C@@H]2N1C(=O)NCc1ccccc1` [Compound D-35], the GI50 in data set [2] was 15 nM.

As for `C=CCN1CC(=O)N2[C@@H](Cc3ccc(O)cc3)C(=O)N(Cc3cccc4c(-c5ccc(C(=O)NCc6ccccc6)cc5)cn(C)c34)C[C@@H]2N1C(=O)NCc1ccccc1` [Compound D-27], growth in data set [2] was halved (GI50) at 4.3 nM.

On to `C=CCN1CC(=O)N2[C@@H](Cc3ccc(O)cc3)C(=O)N(Cc3cccc4c(-c5ccc(NC(=O)C6CCCN(C)C6)cc5)cn(C)c34)C[C@@H]2N1C(=O)NCc1ccccc1` (stereo partly drawn) [Compound D-63], for which the GI50 in data set [2] was determined as 1.3 nM.

For the compound `C=CCN1CC(=O)N2[C@@H](Cc3ccc(O)cc3)C(=O)N(Cc3cccc4c(-c5ccc(C(=O)NOC(C)(C)C)cc5)cn(C)c34)C[C@@H]2N1C(=O)NCc1ccccc1` [Compound D-46], it took 3.4 nM to inhibit growth in data set [2] by half (GI50).

Take `C=CCN1CC(=O)N2C(CN(Cc3cccc4c(C(=O)Nc5ccc(N)nc5)cn(C)c34)C(=O)[C@@H]2Cc2ccc(O)cc2)N1C(=O)NCc1ccccc1` (stereo partly drawn) [Compound G-9]: in data set [2], the GI50 came out at 19.9 nM.

Regarding `C=CCN1CC(=O)N2[C@@H](Cc3ccc(O)cc3)C(=O)N(Cc3cccc4c(-c5cccc(C(=O)N6CCOCC6)c5)cn(C)c34)C[C@@H]2N1C(=O)NCc1ccccc1` [Compound D-1], it took 1.8 nM to inhibit growth in data set [2] by half (GI50).

Consider `C=CCN1CC(=O)N2[C@@H](Cc3ccc(O)cc3)C(=O)N(Cc3cccc4c(C(=O)N(C)CC(C)(C)CO)cn(C)c34)C[C@@H]2N1C(=O)NCc1ccccc1` [Compound F-8], for which growth in data set [2] was halved (GI50) at 2 nM.

On to `C=CCN1CC(=O)N2[C@@H](Cc3ccc(O)cc3)C(=O)N(Cc3cccc4c(-c5ccc(C(N)=O)cc5)cn(C)c34)C[C@@H]2N1C(=O)NCc1ccccc1` [Compound D-7], for which it took 1.2 nM to inhibit growth in data set [2] by half (GI50). Against the preceding compound, the GI50 is about 1.7-fold lower.

`C=CCN1CC(=O)N2C(Cc3ccc(O)cc3)C(=O)N(Cc3cccc4c(C(=O)Nc5ccc(N(C)CC(C)C)nc5)cn(C)c34)CC2N1C(=O)NCc1ccccc1` (stereo not drawn) [Compound G-17] came in with a GI50 in data set [2] of 2 nM.

Compound `C=CCN1CC(=O)N2[C@@H](Cc3ccc(O)cc3)C(=O)N(Cc3cccc4c(C(=O)N5CCN(c6ccc(O)cc6)CC5)cn(C)c34)C[C@@H]2N1C(=O)NCc1ccccc1` [Compound E-40] had a GI50 in data set [2] of 15.4 nM.

Take `C=CCN1CC(=O)N2C(CN(Cc3cccc4c(-c5ccc(NC(=O)C6CCN(C)CC6)cc5)cn(C)c34)C(=O)[C@@H]2Cc2ccc(O)cc2)N1C(=O)NCc1ccccc1` (stereo partly drawn) [Compound D-60]: growth in data set [2] was halved (GI50) at 1.1 nM.

`C=CCN1CC(=O)N2[C@@H](Cc3ccc(O)cc3)C(=O)N(Cc3cccc4c(-c5ccc(C(=O)N(N)C(C)C)cc5)cn(C)c34)C[C@@H]2N1C(=O)NCc1ccccc1` [Compound D-42] showed a GI50 in data set [2] of 1.8 nM. Compared with the last compound, the GI50 is about 1.6-fold higher.

Compound `C=CCN1CC(=O)N2[C@@H](Cc3ccc(O)cc3)C(=O)N(Cc3cccc4c(-c5ccc(NC(=O)Nc6ccc(N7CCN(C)CC7)nc6)cc5)cn(C)c34)C[C@@H]2N1C(=O)NCc1ccccc1` [Compound D-78] registered a concentration for 50% growth inhibition (GI50) in data set [2] of 1.5 nM. The GI50 values of the last two compounds are within 1.5-fold of each other.

As for `C=CCN1CC(=O)N2[C@@H](Cc3ccc(O)cc3)C(=O)N(Cc3cccc4c(-c5ccc(C(=O)N6CCN(C)CC6)o5)cn(C)c34)C[C@@H]2N1C(=O)NCc1ccccc1` [Compound D-105], it took 3.7 nM to inhibit growth in data set [2] by half (GI50).

Consider `C=CCN1CC(=O)N2[C@@H](Cc3ccc(O)cc3)C(=O)N(Cc3cccc4c(-c5ccc(C(=O)NN6C(C)CNCC6C)cc5)cn(C)c34)C[C@@H]2N1C(=O)NCc1ccccc1` (stereo partly drawn) [Compound D-32], for which the GI50 in data set [2] is 1.3 nM.

In turn, `C=CCN1CC(=O)N2[C@@H](Cc3ccc(O)cc3)C(=O)N(Cc3cccc4c(C(=O)N5CCN6CCN(CC7CCC7)CC6C5)cn(C)c34)C[C@@H]2N1C(=O)NCc1ccccc1` (stereo partly drawn) [Compound E-49] registered a GI50 in data set [2] of 6.9 nM.

Regarding `C=CCN1CC(=O)N2[C@@H](Cc3ccc(O)cc3)C(=O)N(Cc3cccc4c(C(=O)Nc5ccc(N6CCC(N(C)C)CC6)nc5)cn(C)c34)C[C@@H]2N1C(=O)NCc1ccccc1` [Compound G-45], it took 1.2 nM to inhibit growth in data set [2] by half (GI50).
